Substitutions are numbered along the chain they refer to. pKd: −log10 of the molar value.
Assays:
[1] = target: T1, ZmHK1 (tobacco membrane; fused to GFP) (Zea mays, UniProt Q9FRY7); assay: cytokinin binding assay, tobacco microsomal membranes
T1 sequence (Q9FRY7 1-974): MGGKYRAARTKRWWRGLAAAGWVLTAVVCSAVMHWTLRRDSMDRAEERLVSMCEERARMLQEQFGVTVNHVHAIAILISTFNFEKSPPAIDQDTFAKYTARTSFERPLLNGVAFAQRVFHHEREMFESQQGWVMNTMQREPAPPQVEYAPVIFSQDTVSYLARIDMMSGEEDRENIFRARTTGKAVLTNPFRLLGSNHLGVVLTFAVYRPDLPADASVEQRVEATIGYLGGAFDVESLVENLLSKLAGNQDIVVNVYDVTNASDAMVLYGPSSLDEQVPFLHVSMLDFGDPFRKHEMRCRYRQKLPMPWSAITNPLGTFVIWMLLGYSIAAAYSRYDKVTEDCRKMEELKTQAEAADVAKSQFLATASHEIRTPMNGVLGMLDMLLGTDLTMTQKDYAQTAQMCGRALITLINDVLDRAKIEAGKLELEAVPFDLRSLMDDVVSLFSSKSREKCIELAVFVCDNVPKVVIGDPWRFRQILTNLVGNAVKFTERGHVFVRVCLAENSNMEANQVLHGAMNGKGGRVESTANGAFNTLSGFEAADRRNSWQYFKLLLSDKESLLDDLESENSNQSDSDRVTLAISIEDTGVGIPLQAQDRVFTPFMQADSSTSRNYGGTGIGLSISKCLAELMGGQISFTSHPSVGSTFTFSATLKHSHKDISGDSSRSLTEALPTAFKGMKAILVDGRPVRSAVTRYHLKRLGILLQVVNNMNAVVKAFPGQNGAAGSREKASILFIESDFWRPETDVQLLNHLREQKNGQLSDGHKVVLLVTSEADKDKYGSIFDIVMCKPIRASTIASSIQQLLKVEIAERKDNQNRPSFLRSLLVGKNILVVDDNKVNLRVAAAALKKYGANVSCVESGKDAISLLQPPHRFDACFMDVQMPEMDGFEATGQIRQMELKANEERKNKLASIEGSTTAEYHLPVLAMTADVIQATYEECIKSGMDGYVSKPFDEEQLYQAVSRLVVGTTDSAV

[2] = target: T2, ZmHK1 (tobacco membrane; fused to GFP) (Zea mays, UniProt Q9FRY7, P190L); assay: as above
T2 sequence (Q9FRY7 1-974 P190L): T1 sequence (Q9FRY7 1-974) with P190L

SMILES | pKd [1] | pKd [2]
Nc1ncnc2nc[nH]c12 [Ade] | < 5.00 | –
c1ccc(CNc2ncnc3nc[nH]c23)cc1 [BA] | 8.85 | –
O=C(Nc1ccccc1)Nc1cnns1 [TD] | 7.31 | –

Continued, values first:

pKd [1] | pKd [2] | SMILES
6.94 | – | C[C@H](CO)CCNc1ncnc2nc[nH]c12 [DZ]
– | 9.64 | CC(C)=CCNc1ncnc2nc[nH]c12 [iP]

From doi:10.1101/743898v3 (biorxiv, 2019)
